Legend:
hot plate = hot plate technique (central analgesic); assay type: in vivo; conditions: for Potency: Relative to indomethacin at 120 min.
[1] = test system: acetic acid-induced abdominal writhing; assay: acetic acid-induced abdominal writhing technique (peripheral analgesic); assay type: in vivo; conditions: for Potency: Relative to indomethacin; for % Inhibition/protection / Writing reflex ± SEM: in vivo; on % Inhibition/protection: test concentration or dose not given here; on Writing reflex ± SEM: test concentration or dose not given here
[2] = test system: carrageenan-induced paw edema; assay: carrageenan-induced paw edema technique (anti-inflammatory); assay type: in vivo; conditions: for Observed (1/property): 1/(% inhibition of edema thickness at 3 h effect); on Observed (1/property): test concentration or dose not given here; on Potency (% Inhibition relative to indomethacin at 3 h effect): test concentration or dose not given here
Description: Anti-inflammatory properties of the ibuprofen-amino acid conjugate (5a-j) and ibuprofen-amino acid-4-aminophenol conjugates 7a-j were studied by the standard carrageenan-induced paw edema technique (Naumov, R. N. et al., Bioorg. Med. Chem. Lett. 2015, 25, 2314-2320; Tiwari, A. D. et al., Org. Biomol. Chem. 2014, 12, 7238-7249).

animal gastric mucosa = assay: ulcerogenic liability; assay type: in vivo
[3] = % inhibition of edema thickness at 3 h effect, Table 7
[4] = anti-inflammatory property (% inhibition of edema at 3 h), Table 8
[5] = same dose as anti-inflammatory testing

Compound: CC(C)Cc1ccc(C(C)C(=O)NCCCC(=O)O)cc1 (centres unmarked) [Compound 5d, 4-(2-(4-Isobutylphenyl)propanamido)butanoic acid]
- melting point: 78.3 °C
- % protection (hot plate; After 30 min.): (34.7) %
- Latency period ± SEM (hot plate; After 30 min.): 3.26 ± 0.12 s
- % protection (hot plate; After 60 min.): (19.3) %
- Latency period ± SEM (hot plate; After 60 min.): 2.66 ± 0.04 s
- % protection (hot plate; After 90 min.): (13.2) %
- Latency period ± SEM (hot plate; After 90 min.): 2.49 ± 0.03 s
- % protection (hot plate; After 120 min.): (8.2) %
- Latency period ± SEM (hot plate; After 120 min.): 2.37 ± 0.01 s
- Potency (hot plate): 14
- Potency [1]: 7
- % Inhibition/protection [1]: 3.8%
- Writing reflex ± SEM [1]: 93.6 ± 2.6
- Observed (1/property) ([2]; Table 7): 0.01667
- % inhibition of edema ([2]; 1 h): 22%
- Mean edema thickness ([2]; 1 h): 0.96 ± 0.06 mm
- % inhibition of edema ([2]; 2 h): 28%
- Mean edema thickness ([2]; 2 h): 1.09 ± 0.07 mm
- % inhibition of edema ([2]; 3 h): 60%
- Mean edema thickness ([2]; 3 h): 0.52 ± 0.04 mm
- % inhibition of edema ([2]; 4 h): 13%
- Mean edema thickness ([2]; 4 h): 1.09 ± 0.05 mm
- % inhibition of edema ([2]; 24 h): 58%
- Mean edema thickness ([2]; 24 h): 0.08 ± 0.02 mm
- Observed property [2, 3]: 60%
- Observed property [2, 4]: 60%
- Potency (% Inhibition relative to indomethacin at 3 h effect) [2]: 75%

Compound: CC(C)Cc1ccc(C(C)C(=O)NCCC(=O)Nc2ccc(O)cc2)cc1 (centres unmarked) [Compound 7c, N-(4-Hydroxyphenyl)-3-(2-(4-isobutylphenyl)propanamido)propanamide]
- melting point: 155.5 °C
- % protection (hot plate; After 30 min.): (58.3) %
- Latency period ± SEM (hot plate; After 30 min.): 3.83 ± 0.03 s
- % protection (hot plate; After 60 min.): (53.4) %
- Latency period ± SEM (hot plate; After 60 min.): 3.42 ± 0.12 s
- % protection (hot plate; After 90 min.): (52.7) %
- Latency period ± SEM (hot plate; After 90 min.): 3.36 ± 0.15 s
- % protection (hot plate; After 120 min.): (52.1) %
- Latency period ± SEM (hot plate; After 120 min.): 3.33 ± 0.11 s
- Potency (hot plate): 92
- Potency [1]: 115
- % Inhibition/protection [1]: 63.0%
- Writing reflex ± SEM [1]: 36.0 ± 1.3
- Observed (1/property) ([2]; Table 7): 0.01493
- % inhibition of edema ([2]; 1 h): 35%
- Mean edema thickness ([2]; 1 h): 0.80 ± 0.03 mm
- % inhibition of edema ([2]; 2 h): 58%
- Mean edema thickness ([2]; 2 h): 0.63 ± 0.03 mm
- % inhibition of edema ([2]; 3 h): 67%
- Mean edema thickness ([2]; 3 h): 0.43 ± 0.02 mm
- % inhibition of edema ([2]; 4 h): 70%
- Mean edema thickness ([2]; 4 h): 0.38 ± 0.01 mm
- % inhibition of edema ([2]; 24 h): 0%
- Mean edema thickness ([2]; 24 h): 0.19 ± 0.02 mm
- Observed property [2, 3]: 67%
- Observed property [2, 4]: 67%
- Potency (% Inhibition relative to indomethacin at 3 h effect) [2]: 84%

Compound: CC(C)Cc1ccc(C(C)C(=O)O)cc1 (centres unmarked) [Ibuprofen, reference compound]
- % protection (hot plate; After 30 min.): (25.2) %
- Latency period ± SEM (hot plate; After 30 min.): 3.03 ± 0.04 s
- % protection (hot plate; After 60 min.): (30.5) %
- Latency period ± SEM (hot plate; After 60 min.): 2.91 ± 0.02 s
- % protection (hot plate; After 90 min.): (40.5) %
- Latency period ± SEM (hot plate; After 90 min.): 3.09 ± 0.04 s
- % protection (hot plate; After 120 min.): (50.2) %
- Latency period ± SEM (hot plate; After 120 min.): 3.29 ± 0.03 s
- Potency (hot plate): 89
- % Incidence of ulcer divided by 10 (animal gastric mucosa; [5]): 3.33
- Average of ulcer number (animal gastric mucosa; [5]): 0.33
- Average severity of ulcer (animal gastric mucosa; [5]): 0.67
- Number of animals with ulcer (animal gastric mucosa; [5]): 2/6
- Potency [1]: 93
- % Inhibition/protection [1]: 50.8%
- Writing reflex ± SEM [1]: 47.9 ± 2.1
- % inhibition of edema ([2]; 1 h): 25%
- Mean edema thickness ([2]; 1 h): 0.92 ± 0.02 mm
- % inhibition of edema ([2]; 2 h): 37%
- Mean edema thickness ([2]; 2 h): 0.95 ± 0.03 mm
- % inhibition of edema ([2]; 3 h): 71%
- Mean edema thickness ([2]; 3 h): 0.38 ± 0.01 mm
- % inhibition of edema ([2]; 4 h): 49%
- Mean edema thickness ([2]; 4 h): 0.64 ± 0.02 mm
- % inhibition of edema ([2]; 24 h): 32%
- Mean edema thickness ([2]; 24 h): 0.13 ± 0.01 mm

Compound: COc1ccc2c(c1)c(CC(=O)O)c(C)n2C(=O)c1ccc(Cl)cc1 [Indomethacin, reference compound]
- % protection (hot plate; After 0 min.): (6.4) %
- Latency period ± SEM (hot plate; After 0 min.): 3.15 ± 0.03 s
- % protection (hot plate; After 30 min.): (30.6) %
- Latency period ± SEM (hot plate; After 30 min.): 3.16 ± 0.02 s
- % protection (hot plate; After 60 min.): (35.4) %
- Latency period ± SEM (hot plate; After 60 min.): 3.02 ± 0.04 s
- % protection (hot plate; After 90 min.): (49.5) %
- Latency period ± SEM (hot plate; After 90 min.): 3.29 ± 0.01 s
- % protection (hot plate; After 120 min.): (56.6) %
- Latency period ± SEM (hot plate; After 120 min.): 3.43 ± 0.05 s
- Potency (hot plate): 100
- % Incidence of ulcer divided by 10 (animal gastric mucosa; [5]): 10
- Average of ulcer number (animal gastric mucosa; [5]): 2
- Average severity of ulcer (animal gastric mucosa; [5]): 1.67
- Number of animals with ulcer (animal gastric mucosa; [5]): 6/6
- Ulcer index (animal gastric mucosa; [5]): 13.67
- Potency [1]: 100
- % Inhibition/protection [1]: 54.9%
- Writing reflex ± SEM [1]: 43.9 ± 1.9
- % inhibition of edema ([2]; 1 h): 44%
- Mean edema thickness ([2]; 1 h): 0.69 ± 0.05 mm
- % inhibition of edema ([2]; 2 h): 45%
- Mean edema thickness ([2]; 2 h): 0.83 ± 0.04 mm
- % inhibition of edema ([2]; 3 h): 80%
- Mean edema thickness ([2]; 3 h): 0.26 ± 0.03 mm
- % inhibition of edema ([2]; 4 h): 66%
- Mean edema thickness ([2]; 4 h): 0.43 ± 0.05 mm
- % inhibition of edema ([2]; 24 h): 53%
- Mean edema thickness ([2]; 24 h): 0.09 ± 0.02 mm
- Potency (% Inhibition relative to indomethacin at 3 h effect) [2]: 100%

Compound: CSCC[C@H](NC(=O)C(C)c1ccc(CC(C)C)cc1)C(=O)Nc1ccc(O)cc1 (stereo partly drawn) [Compound 7i, (2S)-N-(4-Hydroxyphenyl)-2-(2-(4-isobutylphenyl)propanamido)-4-(methylthio)butanamide]
- melting point: 190.8 °C
- % protection (hot plate; After 30 min.): (86.4) %
- Latency period ± SEM (hot plate; After 30 min.): 4.51 ± 0.07 s
- % protection (hot plate; After 60 min.): (90.1) %
- Latency period ± SEM (hot plate; After 60 min.): 4.24 ± 0.05 s
- % protection (hot plate; After 90 min.): (97.7) %
- Latency period ± SEM (hot plate; After 90 min.): 4.35 ± 0.02 s
- % protection (hot plate; After 120 min.): (121.5) %
- Latency period ± SEM (hot plate; After 120 min.): 4.85 ± 0.04 s
- Potency (hot plate): 215
- Potency [1]: 128
- % Inhibition/protection [1]: 70.4%
- Writing reflex ± SEM [1]: 28.8 ± 1.0
- Observed (1/property) ([2]; Table 7): 0.01786
- % inhibition of edema ([2]; 1 h): 34%
- Mean edema thickness ([2]; 1 h): 0.81 ± 0.04 mm
- % inhibition of edema ([2]; 2 h): 48%
- Mean edema thickness ([2]; 2 h): 0.79 ± 0.04 mm
- % inhibition of edema ([2]; 3 h): 56%
- Mean edema thickness ([2]; 3 h): 0.57 ± 0.02 mm
- % inhibition of edema ([2]; 4 h): 49%
- Mean edema thickness ([2]; 4 h): 0.64 ± 0.03 mm
- % inhibition of edema ([2]; 24 h): 5%
- Mean edema thickness ([2]; 24 h): 0.18 ± 0.02 mm
- Observed property [2, 3]: 56%
- Observed property [2, 4]: 56%
- Potency (% Inhibition relative to indomethacin at 3 h effect) [2]: 70%

Compound: CC(C)Cc1ccc(C(C)C(=O)NCC(=O)O)cc1 (centres unmarked) [Compound 5a, (2-(4-Isobutylphenyl)propanoyl)glycine]
- % protection (hot plate; After 30 min.): (15.3) %
- Latency period ± SEM (hot plate; After 30 min.): 2.79 ± 0.03 s
- % protection (hot plate; After 60 min.): (28.3) %
- Latency period ± SEM (hot plate; After 60 min.): 2.86 ± 0.04 s
- % protection (hot plate; After 90 min.): (29.1) %
- Latency period ± SEM (hot plate; After 90 min.): 2.84 ± 0.02 s
- % protection (hot plate; After 120 min.): (29.7) %
- Latency period ± SEM (hot plate; After 120 min.): 2.84 ± 0.05 s
- Potency (hot plate): 52
- % Incidence of ulcer divided by 10 (animal gastric mucosa; in vivo): 0
- Average of ulcer number (animal gastric mucosa; in vivo): 0
- Average severity of ulcer (animal gastric mucosa; in vivo): 0
- Number of animals with ulcer (animal gastric mucosa; in vivo): 0
- Ulcer index (animal gastric mucosa; in vivo): 0
- Potency [1]: 83
- % Inhibition/protection [1]: 45.6%
- Writing reflex ± SEM [1]: 52.9 ± 1.3
- Observed (1/property) ([2]; Table 7): 0.01389
- % inhibition of edema ([2]; 1 h): 53%
- Mean edema thickness ([2]; 1 h): 0.58 ± 0.02 mm
- % inhibition of edema ([2]; 2 h): 66%
- Mean edema thickness ([2]; 2 h): 0.51 ± 0.04 mm
- % inhibition of edema ([2]; 3 h): 72%
- Mean edema thickness ([2]; 3 h): 0.37 ± 0.06 mm
- % inhibition of edema ([2]; 4 h): 67%
- Mean edema thickness ([2]; 4 h): 0.41 ± 0.04 mm
- % inhibition of edema ([2]; 24 h): 68%
- Mean edema thickness ([2]; 24 h): 0.06 ± 0.01 mm
- Observed property [2, 3]: 72%
- Observed property [2, 4]: 72%
- Potency (% Inhibition relative to indomethacin at 3 h effect) [2]: 90%

Compound: CC(C)Cc1ccc(C(C)C(=O)N[C@@H](Cc2ccccc2)C(=O)O)cc1 (stereo partly drawn) [Compound 5e, (2-(4-Isobutylphenyl)propanoyl)-L-phenylalanine]
- % protection (hot plate; After 30 min.): (24.0) %
- Latency period ± SEM (hot plate; After 30 min.): 3.00 ± 0.04 s
- % protection (hot plate; After 60 min.): (30.5) %
- Latency period ± SEM (hot plate; After 60 min.): 2.91 ± 0.01 s
- % protection (hot plate; After 90 min.): (35.5) %
- Latency period ± SEM (hot plate; After 90 min.): 2.98 ± 0.03 s
- % protection (hot plate; After 120 min.): (48.4) %
- Latency period ± SEM (hot plate; After 120 min.): 3.25 ± 0.02 s
- Potency (hot plate): 86
- Potency [1]: 84
- % Inhibition/protection [1]: 46.0%
- Writing reflex ± SEM [1]: 52.5 ± 1.2
- Observed (1/property) ([2]; Table 7): 0.01613
- % inhibition of edema ([2]; 1 h): 25%
- Mean edema thickness ([2]; 1 h): 0.92 ± 0.07 mm
- % inhibition of edema ([2]; 2 h): 19%
- Mean edema thickness ([2]; 2 h): 1.22 ± 0.08 mm
- % inhibition of edema ([2]; 3 h): 62%
- Mean edema thickness ([2]; 3 h): 0.50 ± 0.04 mm
- % inhibition of edema ([2]; 4 h): 30%
- Mean edema thickness ([2]; 4 h): 0.88 ± 0.05 mm
- % inhibition of edema ([2]; 24 h): 74%
- Mean edema thickness ([2]; 24 h): 0.05 ± 0.02 mm
- Observed property [2, 3]: 62%
- Observed property [2, 4]: 62%
- Potency (% Inhibition relative to indomethacin at 3 h effect) [2]: 78%
